Experimental data: EP4417602A1, “SUBSTITUTED PYRAZOLE CARBOXAMIDES, SALTS THEREOF AND THEIR USE AS HERBICIDALLY ACTIVE SUBSTANCES” (Bayer AG, priority 2023, dated 2024)

Legend:
ECHCG [1] = assay: A. Herbicidal pre-emergence action on harmful plants (Tables A); assay type: in vivo, Echinochloa crus-galli; conditions: visual grading after ca. 3 weeks vs untreated controls, 100% = plants have died off, 0% = as control plants
Outline: (§1)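 Values are visual percent damage relative to untreated controls, scored ca. 3 weeks after the compound was sprayed on the covering soil of sown pots (sandy loam) at rates up to 1280 g/ha, formulated as WP or EC with 0.5% additive.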

LOLRI [2] = assay: as above; assay type: in vivo, Lolium rigidum; conditions: visual grading after ca. 3 weeks vs untreated controls, 100% = plants have died off, 0% = as control plants
Outline: as §1

MATIN [3] = assay: as above; assay type: in vivo, Matricaria inodora; conditions: visual grading after ca. 3 weeks vs untreated controls, 100% = plants have died off, 0% = as control plants
Outline: as §1

SETVI = assay: as above; assay type: in vivo, Setaria viridis; conditions: visual grading after ca. 3 weeks vs untreated controls, 100% = plants have died off, 0% = as control plants
Outline: as §1

STEME [4] = assay: as above; assay type: in vivo, Stellaria media; conditions: visual grading after ca. 3 weeks vs untreated controls, 100% = plants have died off, 0% = as control plants
Outline: as §1

POAAN [5] = assay: as above; assay type: in vivo, Poa annua
Outline: as §1

ALOMY = assay: as above; assay type: in vivo, Alopecurus myosuroides
Outline: as §1

DIGSA = assay: as above; assay type: in vivo, Digitaria sanguinalis; conditions: application rate 1280 g/ha; Table A12a
Outline: as §1

ECHCG [6] = assay: B. Herbicidal post-emergence action on harmful plants (Tables B); assay type: in vivo, Echinochloa crus-galli; conditions: application rate 1280 g/ha; Table B2a
Outline: (§2)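 Greenhouse weeds grown in sandy loam were sprayed post-emergence at the one-leaf stage, 2-3 weeks after sowing. Compounds were applied as WP or EC in water with 0.5% additive at 600 L/ha, at 1280 g/ha or below. Visual damage was rated after about 3 weeks versus untreated plants (0-100%).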

LOLRI [7] = assay: as above; assay type: in vivo, Lolium rigidum; conditions: application rate 1280 g/ha; Table B3
Method: Seeds of mono- and dicotyledonous weed plants were placed in plastic pots in sandy loam soil (doubly sown with in each case one species of mono- or dicotyledonous weed plants per pot), covered with soil and cultivated in a greenhouse under controlled growth conditions. 2 to 3 weeks after sowing, the test plants were treated at the one-leaf stage. The compounds of the invention, formulated in the form of wettable powders (WP) or as emulsion concentrates (EC), were applied onto the green parts of the plants as aqueous suspension or emulsion with addition of 0.5% additive at a water application rate of 600 liters per hectare (converted). After the test plants had been kept in the greenhouse under optimum growth conditions for about 3 weeks, the activity of the preparations was rated visually in comparison to untreated controls. For example, 100% activity = the plants have died, 0% activity = like control plants. Tables B1 to B12, below, show the effects of selected compounds of the general formula (I) according to table 1 on various harmful plants and an application rate corresponding to 1280 g/ha or below obtained by the experimental procedure mentioned above. Table B1a: post-emergence activity at 1280g/ha against ABUTH in %

MATIN [8] = assay: as above; assay type: in vivo, Matricaria inodora
Outline: as §2

STEME [9] = assay: as above; assay type: in vivo, Stellaria media; conditions: application rate 1280 g/ha; Table B6
Outline: as §2

POAAN [10] = assay: as above; assay type: in vivo, Poa annua
Outline: as §2

VERPE = assay: as above; assay type: in vivo, Veronica persica; conditions: application rate 1280 g/ha; Table B11a
Outline: as §2

COCc1nn(C)cc1C(=O)N1CCCC1Cc1ccccc1Br (racemic) [Example I-018]
pre-emergence activity against ECHCG (ECHCG [1]; application rate 80 g/ha): 90%
pre-emergence activity against ECHCG (ECHCG [1]; application rate 320 g/ha): 90%
pre-emergence activity against ECHCG (ECHCG [1]; application rate 1280 g/ha): 100%
pre-emergence activity against LOLRI (LOLRI [2]; application rate 80 g/ha): 90%
pre-emergence activity against LOLRI (LOLRI [2]; application rate 320 g/ha): 100%
pre-emergence activity against LOLRI (LOLRI [2]; application rate 1280 g/ha): 100%
pre-emergence activity against MATIN (MATIN [3]; application rate 80 g/ha): 90%
pre-emergence activity against MATIN (MATIN [3]; application rate 320 g/ha): 90%
pre-emergence activity against MATIN (MATIN [3]; application rate 1280 g/ha): 90%
pre-emergence activity against SETVI (SETVI; application rate 320 g/ha): 100%
pre-emergence activity against SETVI (SETVI; application rate 1280 g/ha): 100%
pre-emergence activity against STEME (STEME [4]; application rate 320 g/ha): 90%
pre-emergence activity against STEME (STEME [4]; application rate 1280 g/ha): 90%
pre-emergence activity against POAAN (POAAN [5]; application rate 80 g/ha, Table A7c): 100%
pre-emergence activity against POAAN (POAAN [5]; application rate 320 g/ha, Table A7b): 100%
pre-emergence activity against POAAN (POAAN [5]; application rate 1280 g/ha, visual grading after ca. 3 weeks vs untreated controls, 100% = plants have died off, 0% = as control plants): 100%
pre-emergence activity against ALOMY (ALOMY; application rate 320 g/ha, Table A9b): 90%
pre-emergence activity against ALOMY (ALOMY; application rate 1280 g/ha, Table A9a): 100%
pre-emergence activity against DIGSA (DIGSA): 100%
post-emergence activity against ECHCG (ECHCG [6]): 90%
post-emergence activity against LOLRI (LOLRI [7]): 90%
post-emergence activity against MATIN (MATIN [8]; application rate 320 g/ha, Table B4b): 90%
post-emergence activity against MATIN (MATIN [8]; application rate 1280 g/ha, Table B4a): 90%
post-emergence activity against STEME (STEME [9]): 90%
post-emergence activity against POAAN (POAAN [10]; application rate 320 g/ha, Table B7b): 90%
post-emergence activity against POAAN (POAAN [10]; application rate 1280 g/ha, Table B7a): 90%
post-emergence activity against VERPE (VERPE): 90%
